The target in test [1] is T1, CXCR3 (Homo sapiens, UniProt P49682).
T1 sequence (P49682 1-368): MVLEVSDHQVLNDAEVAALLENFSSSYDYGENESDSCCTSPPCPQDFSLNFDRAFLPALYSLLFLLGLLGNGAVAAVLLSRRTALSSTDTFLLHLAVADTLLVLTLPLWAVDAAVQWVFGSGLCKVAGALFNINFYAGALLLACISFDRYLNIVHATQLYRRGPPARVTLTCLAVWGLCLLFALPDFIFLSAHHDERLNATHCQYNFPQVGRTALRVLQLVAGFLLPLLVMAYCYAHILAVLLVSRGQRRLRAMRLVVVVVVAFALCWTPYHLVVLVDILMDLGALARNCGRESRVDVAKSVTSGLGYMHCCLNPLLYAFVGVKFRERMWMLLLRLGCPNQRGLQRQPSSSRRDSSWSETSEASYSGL
As to the kind of experiment: Chemotaxis assay ITAC (CXCL11), L1.2-CXCR3 cells. It counts as cell-based. Further details: expressed in transfected cells. The conditions noted are these: 1 nM CXCL11 (I-TAC), 4 hours. On the procedure:
Human CXCR3 cDNA was amplified by PCR from a human cells cDNA library (Clontech) and subcloned into pcDNA3.1 (Invitrogen). Murine pre-B L1.2 cells were transfected with hCXCR3-pcDNA3.1 and were grown at 37° C., 5% CO2 in RPMI 1640 medium (Invitrogen, USA) supplemented with 5% heat inactivated fetal calf serum (Cancerra, Australia), 2 mM glutamine (Invitrogen), 50 units ml−1 penicillin, 50 μml−1 streptomycin. Stable transfectant clonal populations were selected using 800 μg/ml geneticin.
L1.2-CXCR3 cells were grown for 24 hours at 0.5×10^6 cells/ml in chemotaxis medium containing 5 mM butyric acid (Sigma). Compounds were on one hand mixed with 1 nM of CXCL11 (I-TAC) in phenol-red free RPMI 1640 (invitrogen) supplemented with 5% fetal bovine serum in presence of 1% DMSO. The CXCL11/compounds mixture was then added to lower chambers of chemotaxis 96 well microplates (neuroprobe), and framed filters ([…] pore size) were put on top of the lower chambers. Compounds were on the other hand mixed with L1.2 CXCR3 cells and incubated in chemotaxis medium at 1.5×10^6 cells/ml in presence of 1% DMSO at 37° C., 5% CO2 for 30 minutes. Cells/compounds mixture was then added on top of the frame filters and migration was performed at 37° C., 5% CO2 for 4 hours. The number of migrated cells in the bottom chamber was determined using the CyQuant GR dye (Molecular Probe), according to the manufacturer.

The target in test [2] is T1, CXCR3. Put plainly: CXCR3 Ca2+ mobilization (FLIPR), stable hCXCR3-CHO cell line, I-TAC stimulated. The following applies: hCXCR3-CHO cells, I-TAC 100 nM stimulated Ca2+ response; read-out: Ca-ITAC. It counts as cell-based. Further details: host or cells: CHO cells stably expressing hCXCR3. The method, then:
Human chinese hamster ovary (CHO) cell line stably expressing hCXCR3 was purchased from Euroscreen (Belgium) and culture in HAM's F12 (Invitrogen) containing 10% heat inactivated fetal calf serum (Cancerra, Australia), 50 units ml−1 penicillin, 50 μml−1 streptomycin, (Invitrogen, USA) and 400 μg/ml geneticin (G418) (Calbiochem, San Diego), according to the manufacturer.
CXCR3Ca^2+ mobilization was measured using a stable hCXCR3—CHO cell line and a microtiter-plate based assay using FLIPR^TETRA™ (Molecular Devices). In more detail, cells were harvested and plated into black 384-well plates (Becton-Dickinson) at a density of 15 000 cells per well and grown in the incubator for 18 hours. On the next day the media was aspirated and replaced with the cell loading buffer (HBSS—(Invitrogen) based buffer containing calcium indicator and signal enhancer from a commercial Ca2+ assay kit (Becton Dickinson). The plates were incubated for 60 minutes in the incubator, the test compounds were added and the plates equilibrated for 20 minutes at room temperature.
Plates were placed into FLIPR and the CXCR3 agonist (I-TAC, 100 nM) stimulated fluorescence change was quantitated. The activity of CXCR3 antagonists was determined as percent of the CXCR3 ligand I-TAC in the absence of the test compounds (=100% activity).

As to `CCOc1ccc(S(=O)(=O)N(Cc2ccc(C(=O)O)c(F)c2)Cc2ccccn2)cc1` [Example 66, 4-{[(4-Ethoxy-benzenesulfonyl)-pyridin-2-ylmethyl-amino]-methyl}-2-fluoro-benzoic acid], the figures for the IC50 on CXCR3 [1] and at CXCR3 [2] were 4600 nM and 2000 nM, respectively.

Consider `N#Cc1ccc(S(=O)(=O)N(Cc2ccc(C(=O)O)c(F)c2)Cc2ccccn2)cc1` [Example 67, 4-{[[(4-cyanophenyl)sulfonyl](pyridin-2-ylmethyl)amino]methyl}-2-fluorobenzoic acid], for which the IC50 came to 3060 nM against CXCR3 [1] and 505 nM at CXCR3 [2].

In the case of `Cc1nc(CN(Cc2ccc(-c3nnn[nH]3)cc2)S(=O)(=O)c2ccc(Cl)cc2)cs1` [Example 68, 4-chloro-N-(2-methyl-thiazol-4-ylmethyl)-N-[4-(2H-tetrazol-5yl)benzyl]benzenesulfonamide], the IC50 is 130 nM against CXCR3 [1] and 2000 nM on CXCR3 [2].

Take `O=S(=O)(c1ccc(Cl)cc1)N(Cc1ccc(-c2nnn[nH]2)cc1)Cc1cccnc1` [Example 71, 4-chloro-N-(pyridin-3-ylmethyl)-N-[4-(2H-tetrazol-5yl)benzyl]benzene sulfonamide]: the results for the IC50 at CXCR3 [1] and at CXCR3 [2] were 1540 nM and 16000 nM, respectively.

For `Cc1nc(CN(Cc2ccc(-c3nnn[nH]3)cc2)S(=O)(=O)c2ccc(Cl)cc2)no1` [Example 73, 4-chloro-N-(5-methyl-1,2,4-oxadiazol-3-ylmethyl)-N-[4-(2H-tetrazol-5yl)benzyl]benzene sulfonamide], the figures for the IC50 at CXCR3 [1] and on CXCR3 [2] were 3240 nM and 12000 nM, respectively.

As for `O=S(=O)(c1ccc(Cl)cc1)N(Cc1ccc(-c2nnn[nH]2)cc1)Cc1nccc2ccccc12` [Example 74, 4-chloro-N-(isoquinolin-1-ylmethyl)-N-[4-(2H-tetrazol-5yl)benzyl]benzene sulfonamide], the figures for the IC50 on CXCR3 [1] and at CXCR3 [2] were 666 nM and 2000 nM, respectively.

As for `O=S(=O)(c1ccc(Cl)cc1)N(Cc1ccc(-c2nnn[nH]2)cc1)Cc1ccc2ccccc2n1` [Example 75], the IC50 at CXCR3 [1] is 2520 nM; on CXCR3 [2], 2000 nM.

In the case of `CCOc1ccc(S(=O)(=O)N(Cc2ccc(C(=O)N[C@H](CO)Cc3ccccc3)cc2)Cc2ccccn2)cc1` [Example 87], the IC50 on CXCR3 [1] is 760 nM; at CXCR3 [2] it was 17000 nM.

Consider `CCOc1ccc(S(=O)(=O)N(Cc2ccc(C(=O)N[C@H]3[C@@H]4CN(C(=O)OC(C)(C)C)C[C@@H]43)cc2)Cc2cccnc2)cc1` [Example 94], for which the IC50 at CXCR3 [1] turned out to be 260 nM; on CXCR3 [2], 2000 nM.

As to `N#Cc1ccc(S(=O)(=O)N(Cc2ccc(C(=O)NCCc3ccc(S(N)(=O)=O)cc3)cc2)Cc2ccccn2)cc1` [Example 99], the IC50 at CXCR3 [1] came out at 1030 nM; on CXCR3 [2] it was 1450 nM.

For the molecule `N#Cc1ccc(S(=O)(=O)N(Cc2ccc(C(=O)N[C@@H](Cc3ccccc3)C(N)=O)cc2)Cc2ccccn2)cc1` [Example 100], the IC50 on CXCR3 [1] amounted to 630 nM; at CXCR3 [2] it was 200 nM.

On to `CC(C)(C)OC(=O)N1C[C@@H]2[C@H](C1)[C@H]2NC(=O)c1ccc(CN(Cc2ccccn2)S(=O)(=O)c2ccc(Cl)cc2)cc1` [Example 105], for which the IC50 was determined as 70 nM against CXCR3 [1] and 20 nM at CXCR3 [2].

With `CC(C)(C)OC(=O)N1C[C@@H]2[C@H](C1)[C@H]2NC(=O)c1ccc(CN(Cc2ccccc2)S(=O)(=O)c2ccc(Cl)cc2)cc1` [Example 106], the IC50 at CXCR3 [1] is 510 nM; on CXCR3 [2], 300 nM.

Turning to `CCOc1ccc(S(=O)(=O)N(Cc2ccc(C(=O)N[C@H]3[C@@H]4CN(C(C)=O)C[C@@H]43)cc2)Cc2ccccn2)cc1` [Example 107], the IC50 at CXCR3 [1] was found to be 2070 nM; on CXCR3 [2], 5500 nM.

Regarding `N#Cc1ccc(S(=O)(=O)N(Cc2ccc(C(=O)NCC(O)c3ccccc3)cc2)Cc2cccnc2)cc1` (stereo not drawn) [Example 109], the IC50 at CXCR3 [1] was determined as 130 nM; at CXCR3 [2], 750 nM.

For `N#Cc1ccc(S(=O)(=O)N(Cc2ccc(C(=O)NCCc3cccc(Cl)c3)cc2)Cc2cccnc2)cc1` [Example 110], the IC50 was found to be 390 nM on CXCR3 [1] and 750 nM at CXCR3 [2].

Consider `N#Cc1ccc(S(=O)(=O)N(Cc2ccc(C(=O)NC3(c4ccccc4)CC3)cc2)Cc2cccnc2)cc1` [Example 113], for which the IC50 is 1300 nM at CXCR3 [1] and 320 nM on CXCR3 [2].

`N#Cc1ccc(S(=O)(=O)N(Cc2ccc(C(=O)NC(CO)C(O)c3ccccc3)cc2)Cc2cccnc2)cc1` (stereo not drawn) [Example 114]: the values for the IC50 at CXCR3 [1] and on CXCR3 [2] were 2500 nM and 2000 nM, respectively.

For the molecule `CC(=O)N1C[C@@H]2[C@H](C1)[C@H]2NC(=O)c1ccc(CN(Cc2ccccc2)S(=O)(=O)c2ccc(Cl)cc2)cc1` [Example 118], the results for the IC50 against CXCR3 [1] and on CXCR3 [2] were 2610 nM and 3000 nM, respectively.

In the case of `CC(=O)N1C[C@@H]2[C@H](C1)[C@H]2NC(=O)c1ccc(CN(Cc2ccccn2)S(=O)(=O)c2ccc(C#N)cc2)cc1` [Example 119], the IC50 against CXCR3 [1] came to 2140 nM; at CXCR3 [2] it was 870 nM.

For the molecule `O=S(=O)(c1ccc(OC(F)(F)F)cc1)N(Cc1ccc(-c2nnn[nH]2)cc1)Cc1ccccn1` [Example 120], the IC50 on CXCR3 [1] is 4470 nM; at CXCR3 [2], 200 nM.

Turning to `O=S(=O)(c1ccc(Cl)cc1)N(Cc1ccccc1)Cc1ccc(-c2nnn[nH]2)cc1` [Example 121], the IC50 at CXCR3 [1] amounted to 3890 nM; at CXCR3 [2] it was 3000 nM.

As for `O=C(NC1(c2cccc(Cl)c2)CC1)c1ccc(CN(Cc2ccccn2)S(=O)(=O)c2ccc(Cl)cc2)cc1` [Example 122], the IC50 against CXCR3 [1] is 240 nM; at CXCR3 [2] it was 600 nM.

Regarding `N#Cc1ccc(S(=O)(=O)N(Cc2ccc(C(=O)NC3(c4cccc(Cl)c4)CC3)cc2)Cc2ccccn2)cc1` [Example 123], the IC50 on CXCR3 [1] stood at 60 nM; at CXCR3 [2], 300 nM.

As to `CCOc1ccc(S(=O)(=O)N(Cc2ccc(C(=O)NC3(c4cccc(Cl)c4)CC3)cc2)Cc2ccccn2)cc1` [Example 124], the IC50 against CXCR3 [1] was 160 nM; at CXCR3 [2], 500 nM.

Take `O=C(NC1(c2ccc(Cl)cc2)CC1)c1ccc(CN(Cc2ccccn2)S(=O)(=O)c2ccc(Cl)cc2)cc1` [Example 125]: the IC50 stood at 350 nM against CXCR3 [1] and 400 nM on CXCR3 [2].

For `N#Cc1ccc(S(=O)(=O)N(Cc2ccc(C(=O)NC3(c4ccc(Cl)cc4)CC3)cc2)Cc2ccccn2)cc1` [Example 126], the IC50 against CXCR3 [1] stood at 170 nM; on CXCR3 [2] it was 700 nM.

As for `CCOc1ccc(S(=O)(=O)N(Cc2ccc(C(=O)NC3(c4ccc(Cl)cc4)CC3)cc2)Cc2ccccn2)cc1` [Example 127], the IC50 at CXCR3 [1] turned out to be 380 nM; at CXCR3 [2], 500 nM.

For `COC(=O)c1ccc(CNC(=O)c2ccc(CN(Cc3ccccn3)S(=O)(=O)c3ccc(Cl)cc3)cc2)cc1` [Example 132], the IC50 against CXCR3 [1] is 270 nM; at CXCR3 [2], 900 nM.

Molecule `O=C(NCC1CC1)c1ccc(CN(Cc2cccc[n+]2[O-])S(=O)(=O)c2ccc(Cl)cc2)cc1` [Example 134, 4-{[(4-Chloro-benzenesulfonyl)-(1-oxy-pyridin-2-ylmethyl)-amino]-methyl}-N-cyclopropylmethyl-benzamide] registered an IC50 at CXCR3 [1] of 2980 nM.

Take `N#Cc1ccc(S(=O)(=O)N(Cc2ccc(C(=O)NCc3ccccn3)cc2)Cc2ccccn2)cc1` [Example 135]: the results for the IC50 against CXCR3 [1] and on CXCR3 [2] were 750 nM and 900 nM, respectively.

In turn, `C[C@@H](c1ccc(NC(=O)C2(c3ccccc3)CC2)cc1)N(Cc1ccccn1)S(=O)(=O)c1ccc(Cl)cc1` [Example 164] registered an IC50 against CXCR3 [1] of 4270 nM.

At CXCR3 [1], `N#Cc1ccc(S(=O)(=O)N(Cc2ccccn2)C2(c3ccc(C(=O)NC4(c5ccccc5)CC4)cc3)CC2)cc1` [Example 176] yielded an IC50 of 4450 nM.

The record behind these values is US20110028509A1, “Sulfonamides” (MERCK SERONO SA, priority 2008, published 2011).
